This note sets out measurements from ChEMBL document CHEMBL1146403, “Three new cryptophycins from Nostoc sp. GSV 224” (J Nat Prod, 1997).

For orientation: IC50 means the concentration that gives 50% inhibition.

What all share (assay type): functional, cell-based
The test system of one assay is KB. Briefly: Cytotoxicity against human KB cells.
Another assay relates to LoVo. Briefly: Cytotoxicity against human LoVo cells.
The subject of a further assay is SK-OV-3. The experiment in a line: Cytotoxicity against human SKOV3 cells.

As to `COc1ccc(C[C@H]2NC(=O)/C=C/C[C@@H]([C@H](C)/C=C/c3ccccc3)OC(=O)[C@H](CC(C)C)OC(=O)[C@H](C)CNC2=O)cc1Cl` [CRYPTOPHYCIN 3], the IC50 in the assay with KB, in the assay on LoVo and with SK-OV-3 was 1.9 nM each time.
`COc1ccc(C[C@@H]2NC(=O)/C=C/C[C@@H]([C@H](C)/C=C/c3ccccc3)OC(=O)[C@H](CC(C)C)OC(=O)[C@H](C)CNC2=O)cc1Cl` [CRYPTOPHYCIN 46]: the IC50 with KB, in the assay with LoVo and with SK-OV-3 was 750 nM each time.
For the compound `COc1c(Cl)cc(C[C@H]2NC(=O)/C=C/C[C@@H]([C@H](C)/C=C/c3ccccc3)OC(=O)[C@H](CC(C)C)OC(=O)[C@H](C)CNC2=O)cc1Cl` [CRYPTOPHYCIN 175], the IC50 in the assay with KB, in the assay on LoVo and in the assay on SK-OV-3 was 100 nM each time.
As for `CC(C)C[C@@H]1OC(=O)CCNC(=O)[C@@H](Cc2ccc(O)c(Cl)c2)NC(=O)/C=C/C[C@@H]([C@H](C)[C@H]2O[C@@H]2c2ccccc2)OC1=O` [CRYPTOPHYCIN 176], the IC50 in the assay with KB, in the assay on LoVo and with SK-OV-3 was 1.3 nM in each case.
Turning to `COc1ccc(C[C@H]2NC(=O)/C=C/C[C@@H]([C@H](C)[C@H]3O[C@@H]3c3ccccc3)OC(=O)[C@H](CC(C)C)OC(=O)[C@H](C)CNC2=O)cc1Cl` [CRYPTOPHYCIN A], the IC50 with KB, in the assay on LoVo and with SK-OV-3 was 0.0092 nM each time.
